# Data taken from US20050074867A1, “Preservation of competent cells at ambient temperatures” (priority 2001, published 2005).
# Assays:
# [1] = tested on: logarithmic E. coli cells; assay: Preservation survival and stability of logarithmic E. coli cells loaded in vitro before foam drying; format: cell-based; conditions: for Preservation Yield (Day 0) % Survival / Preservation Yield (Day 0) Cfu/ml / Stability (Day 7 at RT) % Survival / Stability (Day 7 at RT) Cfu/ml / Stability (Day 14) % Survival / Stability (Day 14) Cfu/ml: loaded with 10% MAG at 37° C. for 30 minutes
# Method: (3) Loading of fresh electrocompetent E. coli cells before preservation: When applicable, one aliquot of the cell concentrate (3.2 ml of cells in PBS buffer, approx. 2×10^10 cfu/ml) was mixed with 0.8 ml of 50% methyl-glucoside (MAG; 10% final concentration) and incubated at 37° C. for 30 minutes (in vitro loading). A second aliquot (3.2 ml of the cell concentrate) was mixed with 0.8 ml of PBS buffer and incubated on ice for 30 minutes (control, unloaded cells). Similar to loading with MAG, the cells were loaded with 2-deoxyglucose (2-DOG) as described in Example 5 infra.
# (4) Preservation of electrocompetent E. coli cells: The cells (resuspended in PBS buffer or on 20% sucrose) were mixed with an equal mass of preservation solution consisting of 45% 2:1 sucrose:raffinose or 45% 4:1 sucrose:MAG on ice. Altematively, the cell pellets were resuspended directly in 22.5% sucrose:raffinose or 22.5% 4:1 sucrose:MAG. The 0.5 g aliquots were distributed in 5 ml glass serum vials or 0.2 g aliquots were distributed in 1.2 ml glass serum vials. To determine the survival in preservation solution before drying, cell-containing mixtures were diluted in PBS buffer containing 20% sucrose and appropriate dilutions were spread plated in duplicate on L-agar plates.
# The samples were dried by foam formation. The mixtures were foamed at 0° C. and kept at that temperature until foam formation occurred. After foam was well formed, shelf temperature was increased to 20° C. and drying continued overnight (at least 12 hours).
# (5) Assaying the preserved E. coli cells: Dried samples were rehydrated at room temperature. 1 ml of rehydration solution (20% sucrose) was added to the 5 ml vials and 0.2 ml was added to the 1.2 ml vials. For the determination of preservation survival, rehydrated cells were diluted and spread plated in duplicate on L-agar plates. Plates were incubated at 37° C. overnight and colonies were counted the following day.
# Bacterial culture was grown until OD550=0.5 was reached (mid-log growth stage). The cell concentrates were prepared as described previously. Control cells, which were not loaded, were incubated on ice for 30 minutes. Cell concentrates were incubated with different amounts (0.15-1%, 5%, 10% and 15%) of glucose and glucose nonmetabolizable analogs at 37° C. for 30 minutes (loading). These mixtures were preserved as described previously.
# Accumulation of MAG in the cells prior to drying enhances preservation of logarithmic E. coli cells. Two cell concentrates (harvested at mid-log growth stage) were prepared as described previously. To induce uptake of MAG, 0.5% glucose was added to the growth medium (“induced culture”). Both concentrates were incubated with 10% MAG at 37° C. for 30 minutes (loading). When loading was completed, one concentrate was diluted 100-fold in PBS buffer and incubated at 37° C. for an additional 30 minutes to induce expulsion of the pre-accumulated MAG. Both concentrates were preserved as described previously.
# Mid-logarithmic culture was prepared as described previously. 0.5% glucose was added to the growth medium (“induced cells”). The culture was concentrated 10-fold and the concentrates were incubated for 30 minutes with 10% MAG at different temperatures (0, 20, 40, and 60° C.). The mixtures were preserved as described previously.
# Effect of incubation time on accumulation of MAG in logarithmic E. coli cells. Cell concentrates were prepared as described previously (0.5% glucose was added to the growth medium) and incubated with 10% MAG at 37° C. for 0, 2.5, 5, 15, 30, and 60 minutes. The mixtures were preserved as described previously.
# Effect of growth stage on accumulation of MAG in E. coli cells. E. coli cultures were grown in L-broth with 0.5% glucose as described previously and harvested at OD550=0.1 (early-log), 0.5 (mid-log), 1.0 (late-log) and 2.0 (stationary cells). The cells in each culture were concentrated and split in two aliquots. […]
# [2] = tested on: logarithmic E. coli cells; assay: as above; format: cell-based; conditions: mid-logarithmic cells loaded with 0.1% at 37° C. for 30 minutes
# [3] = 10% MAG at 37° C., Incubated for 0 min
# [4] = 10% MAG at 37° C., Incubated for 2.5 min
# [5] = 10% MAG at 37° C., Incubated for 5 min
# [6] = 10% MAG at 37° C., Incubated for 15 min
# [7] = 10% MAG at 37° C., Incubated for 30 min
# [8] = 10% MAG at 37° C., Incubated for 60 min
# [9] = 10% MAG for 30 minutes, Loaded at 0° C.
# [10] = 10% MAG for 30 minutes, Loaded at 20° C.
# [11] = 10% MAG for 30 minutes, Loaded at 40° C.
# [12] = 10% MAG for 30 minutes, Loaded at 60° C.
smiles,measurement,setting,value
"COC1OC(CO)C(O)C(O)C1O (stereo not drawn) [MAG, a-methyl-glucoside]",Preservation Yield % Survival,[1]; [3],2.6 +/− 0.8%
same,Preservation Yield Cfu/ml,[1]; [3],5.3 × 10^7 +/− 1.7 × 10^7 Cfu/ml
same,Stability (7 days at RT) % Survival,[1]; [3],1.2 +/− 0.7%
same,Stability (7 days at RT) Cfu/ml,[1]; [3],2.4 × 10^7 Cfu/ml
same,Stability (17 days at RT) % Survival,[1]; [3],1.8 +/− 0.5%
same,Stability (17 days at RT) Cfu/ml,[1]; [3],3.6 × 10^7 Cfu/ml
same,Preservation Yield % Survival,[1]; [4],5.8 +/− 1.1%
same,Preservation Yield Cfu/ml,[1]; [4],1.2 × 10^8 +/− 2.1 × 10^7 Cfu/ml
same,Stability (7 days at RT) % Survival,[1]; [4],4.9 +/− 0.8%
same,Stability (7 days at RT) Cfu/ml,[1]; [4],9.6 × 10^7 Cfu/ml
same,Stability (17 days at RT) % Survival,[1]; [4],2.9 +/− 0.6%
same,Stability (17 days at RT) Cfu/ml,[1]; [4],5.9 × 10^7 Cfu/ml
same,Preservation Yield % Survival,[1]; [5],9.9 +/− 0.6%
same,Preservation Yield Cfu/ml,[1]; [5],2.0 × 10^8 +/− 1.1 × 10^7 Cfu/ml
same,Stability (7 days at RT) % Survival,[1]; [5],6.8 +/− 1.2%
same,Stability (7 days at RT) Cfu/ml,[1]; [5],1.4 × 10^8 Cfu/ml
same,Stability (17 days at RT) % Survival,[1]; [5],9.5 +/− 2.7%
same,Stability (17 days at RT) Cfu/ml,[1]; [5],1.9 × 10^8 Cfu/ml
same,Preservation Yield % Survival,[1]; [6],16.8 +/− 2.8%
same,Preservation Yield Cfu/ml,[1]; [6],3.4 × 10^8 +/− 5.6 × 10^7 Cfu/ml
same,Stability (7 days at RT) % Survival,[1]; [6],10.4 +/− 0.4%
same,Stability (7 days at RT) Cfu/ml,[1]; [6],2.1 × 10^8 Cfu/ml
same,Stability (17 days at RT) % Survival,[1]; [6],11.8 +/− 2.6%
same,Stability (17 days at RT) Cfu/ml,[1]; [6],2.4 × 10^8 Cfu/ml
same,Preservation Yield % Survival,[1]; [7],19.9 +/− 2.2%
same,Preservation Yield Cfu/ml,[1]; [7],4.0 × 10^8 +/− 4.4 × 10^7 Cfu/ml
same,Stability (7 days at RT) % Survival,[1]; [7],13.0 +/− 2.7%
same,Stability (7 days at RT) Cfu/ml,[1]; [7],2.6 × 10^8 Cfu/ml
same,Stability (17 days at RT) % Survival,[1]; [7],16.8 +/− 2.6%
same,Stability (17 days at RT) Cfu/ml,[1]; [7],3.4 × 10^8 Cfu/ml
same,Preservation Yield % Survival,[1]; [8],22.2 +/− 3.0%
same,Preservation Yield Cfu/ml,[1]; [8],4.4 × 10^8 +/− 6.1 × 10^7 Cfu/ml
same,Stability (7 days at RT) % Survival,[1]; [8],16.3 +/− 1.9%
same,Stability (7 days at RT) Cfu/ml,[1]; [8],3.3 × 10^8 Cfu/ml
same,Stability (17 days at RT) % Survival,[1]; [8],19.3 +/− 3.9%
same,Stability (17 days at RT) Cfu/ml,[1]; [8],3.9 × 10^8 Cfu/ml
same,Preservation Yield % Survival,[1]; [9],8.2 +/− 1.4%
same,Preservation Yield Cfu/ml,[1]; [9],1.6 × 10^8 Cfu/ml
same,Stability (9 Days at RT°) % Survival,[1]; [9],5.0 +/− 0.6%
same,Stability (9 Days at RT°) Cfu/ml,[1]; [9],9.4 × 10^7 Cfu/ml
same,Stability (16 Days at RT°) % Survival,[1]; [9],5.2 +/− 1.5%
same,Stability (16 Days at RT°) Cfu/ml,[1]; [9],9.9 × 10^7 Cfu/ml
same,Preservation Yield % Survival,[1]; [10],14.1 +/− 2.6%
same,Preservation Yield Cfu/ml,[1]; [10],2.7 × 10^8 Cfu/ml
same,Stability (9 Days at RT°) % Survival,[1]; [10],8.7 +/− 0.6%
same,Stability (9 Days at RT°) Cfu/ml,[1]; [10],1.6 × 10^8 Cfu/ml
same,Stability (16 Days at RT°) % Survival,[1]; [10],7.3 +/− 1.7%
same,Stability (16 Days at RT°) Cfu/ml,[1]; [10],1.4 × 10^8 Cfu/ml
same,Preservation Yield % Survival,[1]; [11],23.2 +/− 3.5%
same,Preservation Yield Cfu/ml,[1]; [11],4.4 × 10^8 Cfu/ml
same,Stability (9 Days at RT°) % Survival,[1]; [11],28.1 +/− 3.5%
same,Stability (9 Days at RT°) Cfu/ml,[1]; [11],5.3 × 10^8 Cfu/ml
same,Stability (16 Days at RT°) % Survival,[1]; [11],21.0 +/− 1.9%
same,Stability (16 Days at RT°) Cfu/ml,[1]; [11],3.9 × 10^8 Cfu/ml
same,Preservation Yield % Survival,[1]; [12],0%
same,Preservation Yield Cfu/ml,[1]; [12],1.4 × 10^4 Cfu/ml
same,Stability (9 Days at RT°) % Survival,[1]; [12],0%
same,Stability (9 Days at RT°) Cfu/ml,[1]; [12],1.2 × 10^4 Cfu/ml
same,Stability (16 Days at RT°) % Survival,[1]; [12],0%
same,Stability (16 Days at RT°) Cfu/ml,[1]; [12],1.3 × 10^4 Cfu/ml
same,Preservation Yield (Day 0) % Survival,[1]; OD = 0.1 (early-log),11.3 +/− 0.9%
same,Preservation Yield (Day 0) Cfu/ml,[1]; OD = 0.1 (early-log),1.6 × 10^7 Cfu/ml
same,Stability (Day 7 at RT) % Survival,[1]; OD = 0.1 (early-log),8.2 +/− 0.8%
same,Stability (Day 7 at RT) Cfu/ml,[1]; OD = 0.1 (early-log),1.2 × 10^7 Cfu/ml
same,Stability (Day 14) % Survival,[1]; OD = 0.1 (early-log),9.9 +/− 2.2%
same,Stability (Day 14) Cfu/ml,[1]; OD = 0.1 (early-log),1.5 × 10^7 Cfu/ml
same,Preservation Yield (Day 0) % Survival,[1]; OD = 0.5 (mid-log),22.2 +/− 2.9%
same,Preservation Yield (Day 0) Cfu/ml,[1]; OD = 0.5 (mid-log),5.5 × 10^8 Cfu/ml
same,Stability (Day 7 at RT) % Survival,[1]; OD = 0.5 (mid-log),21.6 +/− 4.7%
same,Stability (Day 7 at RT) Cfu/ml,[1]; OD = 0.5 (mid-log),5.3 × 10^8 Cfu/ml
same,Stability (Day 14) % Survival,[1]; OD = 0.5 (mid-log),17.4 +/− 1.2%
same,Stability (Day 14) Cfu/ml,[1]; OD = 0.5 (mid-log),4.3 × 10^8 Cfu/ml
same,Preservation Yield (Day 0) % Survival,[1]; OD = 1.0 (late-log),26.3 +/− 4.7%
same,Preservation Yield (Day 0) Cfu/ml,[1]; OD = 1.0 (late-log),2.3 × 10^9 Cfu/ml
same,Stability (Day 7 at RT) % Survival,[1]; OD = 1.0 (late-log),36.1 +/− 7.5%
same,Stability (Day 7 at RT) Cfu/ml,[1]; OD = 1.0 (late-log),3.2 × 10^9 Cfu/ml
same,Stability (Day 14) % Survival,[1]; OD = 1.0 (late-log),33.0 +/− 5.7%
same,Stability (Day 14) Cfu/ml,[1]; OD = 1.0 (late-log),2.9 × 10^9 Cfu/ml
same,Preservation Yield (Day 0) % Survival,[1]; OD = 2.0 (stationary cells),38.8 +/− 5.8%
same,Preservation Yield (Day 0) Cfu/ml,[1]; OD = 2.0 (stationary cells),2.8 × 10^9 Cfu/ml
same,Stability (Day 7 at RT) % Survival,[1]; OD = 2.0 (stationary cells),29.9 +/− 3.6%
same,Stability (Day 7 at RT) Cfu/ml,[1]; OD = 2.0 (stationary cells),2.1 × 10^9 Cfu/ml
same,Stability (Day 14) % Survival,[1]; OD = 2.0 (stationary cells),35.3 +/− 7.5%
same,Stability (Day 14) Cfu/ml,[1]; OD = 2.0 (stationary cells),2.5 × 10^9 Cfu/ml
same,survived drying,[1]; mid-logarithmic cells loaded with 1% at 37° C. for 30 minutes,12%
same,survived drying,[1]; mid-logarithmic cells loaded with 5% at 37° C. for 30 minutes,24%
same,survived drying,[2],9%
